Here are results for 7 compounds from ChEMBL document CHEMBL1145850, “Pharmacophoric requirements for the cannabinoid side chain. Probing the cannabinoid receptor subsite at C1'” (J Med Chem, 2003).

The term Ki denotes a measure of affinity in units of concentration, obtained from inhibition or displacement.

The target in one experiment is Cannabinoid receptor 2 (Mus musculus, UniProt P47936). As to the kind of experiment: Compound was tested for its binding affinity against mouse spleen Cannabinoid receptor 2 using [3H]CP-55940 as radioligand. Type of experiment: tissue-based.
A further experiment addresses Cannabinoid receptor 1 (Rattus norvegicus, UniProt P20272). As to the kind of experiment: Binding affinity against rat brain Cannabinoid receptor 1 using [3H]CP-55940.

Each structure is given as a SMILES string.

Cannabinoid receptor 2, sequence (P47936 whole entry): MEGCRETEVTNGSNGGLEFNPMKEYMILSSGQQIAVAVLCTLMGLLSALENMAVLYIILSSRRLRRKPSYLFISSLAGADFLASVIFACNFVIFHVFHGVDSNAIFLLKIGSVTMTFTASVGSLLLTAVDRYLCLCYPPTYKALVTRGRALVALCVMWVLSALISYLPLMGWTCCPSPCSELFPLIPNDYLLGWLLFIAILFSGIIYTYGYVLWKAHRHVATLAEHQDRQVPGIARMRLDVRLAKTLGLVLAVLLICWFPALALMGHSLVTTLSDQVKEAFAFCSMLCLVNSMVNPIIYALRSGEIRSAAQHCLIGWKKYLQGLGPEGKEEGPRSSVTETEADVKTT
Cannabinoid receptor 1, sequence (P20272 whole entry): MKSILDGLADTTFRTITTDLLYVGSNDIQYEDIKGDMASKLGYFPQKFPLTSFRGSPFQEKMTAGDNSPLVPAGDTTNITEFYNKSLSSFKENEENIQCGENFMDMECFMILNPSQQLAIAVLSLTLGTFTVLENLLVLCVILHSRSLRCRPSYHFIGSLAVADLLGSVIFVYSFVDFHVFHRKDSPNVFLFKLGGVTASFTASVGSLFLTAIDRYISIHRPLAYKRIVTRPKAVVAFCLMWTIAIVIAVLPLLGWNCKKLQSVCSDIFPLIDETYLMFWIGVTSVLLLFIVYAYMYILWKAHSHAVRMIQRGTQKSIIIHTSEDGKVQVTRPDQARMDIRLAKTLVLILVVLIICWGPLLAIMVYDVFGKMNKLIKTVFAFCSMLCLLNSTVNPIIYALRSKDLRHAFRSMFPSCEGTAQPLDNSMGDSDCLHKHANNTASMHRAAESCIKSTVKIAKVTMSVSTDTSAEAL

As to `CCCCCCC1(c2cc(O)c3c(c2)OC(C)(C)[C@@H]2CC=C(C)C[C@@H]32)OCCO1`, the Ki is 0.22 nM on Cannabinoid receptor 2 and 0.52 nM at Cannabinoid receptor 1. `CCCCCCC1(c2cc(O)c3c(c2)OC(C)(C)[C@@H]2CC=C(C)C[C@@H]32)SCCCS1`: the Ki at Cannabinoid receptor 2 was found to be 3.6 nM; on Cannabinoid receptor 1 it was 1.8 nM. Regarding `CCCCCCC1(c2cc(O)c3c(c2)OC(C)(C)[C@@H]2CC=C(C)C[C@@H]32)CCCC1`, the Ki on Cannabinoid receptor 2 stood at 1.92 nM; on Cannabinoid receptor 1, 0.45 nM. Consider `CC1=CC[C@@H]2[C@@H](C1)c1c(O)cc(C3SCCS3)cc1OC2(C)C`, for which the Ki worked out at 103 nM at Cannabinoid receptor 2 and 168 nM on Cannabinoid receptor 1.

As to `CCCCCCC1(c2cc(O)c3c(c2)OC(C)(C)[C@@H]2CC=C(C)C[C@@H]32)Sc2ccccc2S1`, the Ki on Cannabinoid receptor 2 worked out at 257 nM; at Cannabinoid receptor 1, 56.9 nM. Turning to `CCCCCCC1(c2cc(O)c3c(c2)OC(C)(C)[C@@H]2CC=C(C)C[C@@H]32)SC(C)C(C)S1` (stereo partly drawn), the inhibition constant (Ki) stood at 19.7 nM on Cannabinoid receptor 2 and 32.3 nM at Cannabinoid receptor 1.

On Cannabinoid receptor 1, `CCCCCCCc1cc(O)c2c(c1)OC(C)(C)[C@@H]1CC=C(C)C[C@@H]21` showed a Ki of 22 nM.
